Values joined by “and” are separate entries in the source; they are usually repeats but may differ in a detail not shown here. Identical values can stand only once. Like-named read-outs stand apart in the source and are kept apart here.
Legend:
[1] = test system: Neutral protease (manufactured by Toyobo Co., Ltd.); test: Screening of protease reaction promoter (Example 1); type: biochemical; details: for protease reaction promoting effect (in words): judged from Table 1
Procedure: 1) R-1: Reagent for Protein Decomposition
2) R-2: Reagent for Glycated Amino Acid Detection
The following substances were independently used as a test sample. Note that concentrations described in parentheses each represent a final concentration of the substance in the reagent R1.
Absorbance before the addition of the reagent R-2 and 5 minutes after the addition was measured at 660 nm. […] The AH-AL shown in Table 1 is a difference obtained by subtracting absorbance AL which was obtained from the primary calibrator at level 2 (5.38%) from absorbance AH which was obtained from the primary calibrator at level 4 (9.88%). Here, if AH-AL is large, the sample is judged to have a protease reaction promoting effect. In particular, when AH-AL is 20 or more, the sample has an excellent promoting effect.

[2] = Screening of stabilizer for colorant, MBTH-TOOS (Example 13); type: physicochemical
[3] = Screening of stabilizer for colorant, DA64 (Example 13); type: physicochemical; details: DA-64, 750 nm, 37° C., additives at conc. (1%; IDA 1 mM; Zn, Al 0.1 mM; ferrocyanide 0.01 mM; sorbitol 5%; DMSO 10%)
Procedure: (§1) The following substances were used as test samples. Note that concentrations described in parentheses each represent a final concentration of the substance in the reagent R-1.
(§2) Tween-20 (1%), Brij35 (1%), Triton X-100 (1%), deoxycholic acid (1%), imino-diacetic acid (IDA; 1 mM), ZnSO4 (0.1 mM), AlCl3 (0.1 mM), potassium ferrocyanate (0.01 mM), sorbitol (5%), glucose (5%), sodium nitrite (2 mM), dimethylsulfoxide (DMSO; 10%) (those substances are manufactured by Wako Pure Chemical Industries, Inc.), 2-hydroxypropyl-β-cyclodextrin (2HP β CD; 0.5%, 2%, 5%) and methyl-β-cyclodextrin (M β CD; 0.5%, 2%, 5%) (those substances are manufactured by Nihon Shokuhin Kako Co., Ltd.).
(§3) 500 μl of the R-1 reagent and 500 μl of the R-2 which had been incubated to 37° C. were mixed. The mixture was incubated to 37° C. for 2 minutes, and absorbance thereof (A0) was measured. The mixture was added with 10 μl of 500 μM hydrogen peroxide or distilled water. The whole was incubated to 37° C., and absorbance exactly 5 minutes after the addition of hydrogen peroxide (A1) was measured, to calculate a change in absorbance ΔA (A1-A0). The absorbance was measured using a wavelength of 750 nm when DA64 was used as the colorant, a wavelength of 660 nm when DA67 was used as the colorant, and a wavelength of 570 nm when 4-AA-TOOS was used as the colorant.
(§4) Immediately after the preparation of the reagent, the reagent was preserved at 37° C. for 2 days and 9 days, and measurement of sensitivity of a blank which was distilled water and of hydrogen peroxide was performed.

[4] = Screening of stabilizer for colorant, DA67 (Example 13); type: physicochemical
Procedure: as §1, §2, §3, §4

[5] = test sample 1% in R-1, 660 nm, 20 or more = excellent promoting effect
[6] = test sample 2 mM in R-1, 660 nm

Compound	AH (absorbance from primary calibrator at level 4 (9.88%)) ([1]; test sample 1% in R-1, 660 nm)	AL (absorbance from primary calibrator at level 2 (5.38%)) ([1]; test sample 1% in R-1, 660 nm)	AH − AL [1, 5] [mAbs]	protease reaction promoting effect (in words) [1]	other results
CCCCCCCCCCCC[N+](C)(C)CC(=O)[O-] [AM-301, betaine lauryl dimethylaminoacetate]	122.0	109.9	12.1		
Nc1ncnc2c1ncn2[C@@H]1O[C@H](COP(=O)(O)OP(=O)(O)OP(=O)(O)O)[C@@H](O)[C@H]1O [ATP, adenosine 5′-triphosphate, reference compound]					AH (absorbance from primary calibrator at level 4 (9.88%)) [1, 6]: 57.8; AH − AL [1, 6]: 3.6 mAbs; AL (absorbance from primary calibrator at level 2 (5.38%)) [1, 6]: 54.2
[Cl][Al]([Cl])[Cl] [AlCl3]					blank (distilled water) change in absorbance [2]: 0.045 Abs and 0.055 Abs and 0.058 Abs; change in absorbance when 500 μM of hydrogen peroxide was measured [2]: 0.005 and 0.009; AH (absorbance from primary calibrator at level 4 (9.88%)) [1]: 60.7; AH − AL [1]: 5.6 mAbs; AL (absorbance from primary calibrator at level 2 (5.38%)) [1]: 55.1
C[C@H](CCC(=O)NCCC[N+](C)(C)CCCS(=O)(=O)[O-])[C@H]1CC[C@H]2[C@@H]3[C@H](O)C[C@@H]4C[C@H](O)CC[C@]4(C)[C@H]3C[C@H](O)[C@]12C [CHAPS, 3-[(3-cholamidopropyl)dimethyl-ammonio]propanesulfonic acid, reference compound]	111.4	104.5	6.9		
C[S+](C)[O-] [Dimethylsulfoxide, dimethylsulfoxide, reference compound]					blank (distilled water) change in absorbance ([3]; 0 days): −0.005 Abs; blank (distilled water) change in absorbance ([3]; 2 days): 0.085 Abs; blank (distilled water) change in absorbance ([3]; 9 days): 0.233 Abs; blank (distilled water) change in absorbance ([2]; MBTH-TOOS, 570 nm, 37° C., 0 days, additives at conc. (1%; IDA 1 mM; Zn, Al 0.1 mM; ferrocyanide 0.01 mM; sorbitol 5%; DMSO 10%)): 0.149 Abs; blank (distilled water) change in absorbance ([2]; MBTH-TOOS, 570 nm, 37° C., 2 days, additives at conc. (1%; IDA 1 mM; Zn, Al 0.1 mM; ferrocyanide 0.01 mM; sorbitol 5%; DMSO 10%)): 1.134 Abs; blank (distilled water) change in absorbance ([4]; DA-67, 660 nm, 37° C., 0 days, additives at conc. (1%; IDA 1 mM; Zn, Al 0.1 mM; ferrocyanide 0.01 mM; sorbitol 5%; DMSO 10%)): 0.088 Abs; blank (distilled water) change in absorbance ([4]; DA-67, 660 nm, 37° C., 2 days, additives at conc. (1%; IDA 1 mM; Zn, Al 0.1 mM; ferrocyanide 0.01 mM; sorbitol 5%; DMSO 10%)): 2.103 Abs; AH (absorbance from primary calibrator at level 4 (9.88%)) ([1]; test sample 10% in R-1, 660 nm): 63.0; AH − AL ([1]; test sample 10% in R-1, 660 nm): 3.4 mAbs; AL (absorbance from primary calibrator at level 2 (5.38%)) ([1]; test sample 10% in R-1, 660 nm): 59.6
CCCCCCCCCCCCCOCCOCCOCCOCCOCCOCCOCC(=O)[O-].[Na+] [ECTD-6NEX, sodium polyoxyethylene(6)tridecyl ether acetate]	82.9	53.4	29.5	effects were observed	
Cc1cc2nc3c(=O)[nH]c(=O)nc-3n(C[C@H](O)[C@H](O)[C@H](O)COP(=O)(O)OP(=O)(O)OC[C@H]3O[C@@H](n4cnc5c(N)ncnc54)[C@H](O)[C@@H]3O)c2cc1C [FAD, flavin adenine dinucleotide, reference compound]					AH (absorbance from primary calibrator at level 4 (9.88%)) [1, 6]: 46.2; AH − AL [1, 6]: 0.7 mAbs; AL (absorbance from primary calibrator at level 2 (5.38%)) [1, 6]: 45.5
CCCCCCCCCCCC(=O)N(C)CCS(=O)(=O)[O-].[Na+] [LMT, sodium N-lauroyl methyl taurinate]	102.4	73.0	29.4	effects were observed	
CCCCCCCCCCCCOP(=O)(O)O [Phosten HLP, lauryl phosphate]	134.6	121.9	12.7		
CCCCCCCCCCCCOCCOCCOS(=O)(=O)O.OCCN(CCO)CCO [SBL-2T-36, triethanolamine polyoxyethylene(2)lauryl ether sulfate]	93.3	65.3	28.0	effects were observed	
CCCCCCCCCCCCOCCOCCOCCOCCOS(=O)(=O)O.OCCN(CCO)CCO [SBL-4T, triethanolamine polyoxyethylene(4)lauryl ether sulfate]	103.2	75.2	28.0	effects were observed	
CCCCCCCCCCCCOS(=O)(=O)[O-].[Na+] [SLS, sodium lauryl sulfate, reference compound]	53.3	48.7	4.6		
O=NO [Sodium nitrite, sodium nitrite, reference compound]					AH (absorbance from primary calibrator at level 4 (9.88%)) [1]: 107.9; AH − AL [1]: 26.2 mAbs; AL (absorbance from primary calibrator at level 2 (5.38%)) [1]: 81.7
O=[N+]([O-])c1ccc(-[n+]2nc(-c3ccc(S(=O)(=O)O)cc3S(=O)(=O)O)nn2-c2ccc(I)cc2)c([N+](=O)[O-])c1 [WST-3, 2-(4-iodophenyl)-3-(2,4-dinitrophenyl)-5-(2,4-disulfophenyl)-2H-tetrazolium, reference compound]					AH (absorbance from primary calibrator at level 4 (9.88%)) [1, 6]: 184.6; AH − AL [1, 6]: 23.7 mAbs; AL (absorbance from primary calibrator at level 2 (5.38%)) [1, 6]: 160.9
O=S(=O)([O-])[O-].[Zn+2] [ZnSO4, reference compound]					blank (distilled water) change in absorbance [2]: 0.050 Abs and 0.049 Abs and 0.055 Abs; change in absorbance when 500 μM of hydrogen peroxide was measured [2]: 0.003; blank (distilled water) change in absorbance [4]: 0.051 Abs and 0.062 Abs and 0.050 Abs; AH (absorbance from primary calibrator at level 4 (9.88%)) [1]: 145.7; AH − AL [1]: 1.6 mAbs; AL (absorbance from primary calibrator at level 2 (5.38%)) [1]: 144.1
monostearate polyoxyethylene(15)glyceryl [TMGS-15]	92.0	82.2	9.8		
sodium cocoyl sarcosinate [Sarcosinate CN-30]	106.2	76.6	29.6	effects were observed	
sodium polyoxyethylene(3)tridecyl ether acetate [ECTD-3NEX]	95.8	68.3	27.5	effects were observed	
triethanolamine polyoxyethylene(3)alkyl ether sulfate [SBL-203-27]	112.1	84.3	27.8	effects were observed	

Reference: patent US8080423B2, “Reagent containing protease reaction promoter and/or colorant stabilizer” (Asahi Kasei Pharma Corporation, priority 2004, dated 2011)
